Here are results for 20 compounds from patent US8097733B2, “Pyrazole derivatives as 5-LO-inhibitors” (Pfizer Inc., priority 2007, dated 2012).

One test addresses T1, recombinant human 5-LOX (Homo sapiens, UniProt P09917).
T1 sequence (P09917 1-674): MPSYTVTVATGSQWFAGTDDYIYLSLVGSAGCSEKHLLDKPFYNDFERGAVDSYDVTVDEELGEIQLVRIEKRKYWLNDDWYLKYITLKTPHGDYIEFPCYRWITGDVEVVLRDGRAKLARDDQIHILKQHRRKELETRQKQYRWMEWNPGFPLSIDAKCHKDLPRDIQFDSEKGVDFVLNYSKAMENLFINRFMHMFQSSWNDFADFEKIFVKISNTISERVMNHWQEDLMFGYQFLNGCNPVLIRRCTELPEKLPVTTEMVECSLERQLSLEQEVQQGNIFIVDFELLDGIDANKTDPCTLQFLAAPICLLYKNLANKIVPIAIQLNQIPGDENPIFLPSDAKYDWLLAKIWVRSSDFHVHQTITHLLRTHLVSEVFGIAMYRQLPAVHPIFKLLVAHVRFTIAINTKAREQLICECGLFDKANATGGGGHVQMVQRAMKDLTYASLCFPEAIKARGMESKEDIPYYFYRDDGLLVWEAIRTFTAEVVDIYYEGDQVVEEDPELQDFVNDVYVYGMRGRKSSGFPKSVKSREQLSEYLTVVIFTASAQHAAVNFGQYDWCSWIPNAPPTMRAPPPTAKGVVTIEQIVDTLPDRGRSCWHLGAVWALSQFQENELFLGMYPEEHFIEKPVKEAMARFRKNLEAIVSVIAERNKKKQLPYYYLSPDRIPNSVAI
Kind of test: Fluorescence Intensity 5-LOX Enzyme Assay. The format is biochemical. Particulars: crude lysate of recombinant human 5-LOX; highest inhibitor concentration tested typically 25 μM. The essentials:
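Crude lysate enzyme with H2DCFDA 10 μM (5 min dye pre-incubation), inhibitor pre-incubated 10 min; reaction started with 3 μM arachidonic acid plus 10 μM ATP in Tris pH 7.5, CaCl2, EDTA, 20 min at room temperature, acetonitrile stop. Fluorescein fluorescence; 7-point 4-parameter IC50, top 25 μM, 2.5% DMSO.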

Test [1] deals with human whole blood (leukotriene and prostaglandin levels). Kind of test: Eicosanoid production from human whole blood. The test is classed as cell-based. The note with it: human whole blood stimulated with calcium ionophore A23187 and arachidonic acid; ELISA. The essentials:
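Pooled heparinized whole blood from healthy or asthmatic donors was preincubated with compound for 10 min at room temperature, with 2.5% DMSO final. It was stimulated with calcium ionophore A23187 plus arachidonic acid (30 μM) in 60% ethanol for 15 min at 37 °C. Plasma leukotrienes and prostaglandins were measured by ELISA.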

The subject of test [2] is eicosanoid production in the rat air pouch. Kind of test: Carrageenan-induced eicosanoid production in the rat air pouch. Particulars: po, male Lewis rats, 3 mpk by gavage 1 hour prior to carrageenan. The format is in vivo. The protocol: Carrageenan-Induced Eicosanoid Production in the Rat Air Pouch:
Male Lewis rats (175-200 g), Charles River Laboratories, Wilmington, Mass.) were used in the study. Air pouches were produced by subcutaneous injection of 20 ml of sterile air into the intrascapular area of the back. Pouches were allowed to develop for 1 day. Animals (6 per group) were fasted with free access to water for 16 to 24 hours prior to drug administration. Drugs or vehicle were administered by gavage 1 hour prior to injection of 2 ml of a 1% suspension of carrageenan (FMC BioPolymer, Philadelphia, Pa., Cat. # GP209-NF) dissolved in saline into the pouch. At 3 hours post-carrageenan injection, 1 ml of 50 μg/ml calcium ionophore in saline (A23187, Sigma Chemical Co, St. Louis, M, Cat. #C-7522) was injected into the pouch and the pouch fluid collected 10 minutes later by lavage. The fluid was centrifuged at 3500 rpm for 10 minutes at 4° C., and the supernatants were collected for analysis. Leukotriene and prostaglandin levels were quantitated by ELISA according to the manufacturer's directions (Cayman Chemical Company, Ann Arbor, Mi).

pIC50: −log10 of the molar value.

Usually pIC50 stands for −log10 of the IC50, conventionally taken in molar units. What is called inhibition is the share of the control response that was lost under treatment. A lower inhibition goes with little suppression. With `Cn1nccc1-c1ccc(Sc2c(F)ccc(C3(C(N)=O)CCOCC3)c2F)cc1` [Example 20, 4-(2,4-difluoro-3-{[4-(1-methyl-1H-pyrazol-5-yl)phenyl]thio}phenyl)-tetrahydro-2H-pyran-4-carboxamide], the pIC50 at recombinant human 5-LOX is 6.65; in test [1], 6.35. Also, 3 mg/kg produced 91% inhibition in test [2].

In the case of `Cn1nccc1-c1ccc(Sc2cc(C3(C(N)=O)CCOCC3)ccc2F)cc1` [Example 21, 4-(4-fluoro-3-(4-(1-methyl-1H-pyrazol-5-yl)phenylthio)phenyl)-tetrahydro-2H-pyran-4-carboxamide], the pIC50 at recombinant human 5-LOX was 6.25; in test [1] it was 6.07. In addition, 3 mg/kg produced 96% inhibition in test [2].

Regarding `C[C@H]1C[C@@](C(N)=O)(c2cccc(Sc3ccc(-c4ccnn4C)cc3)c2)CCO1` [Example 22, (2S,4R)-2-methyl-4-(3-(4-(1-methyl-1H-pyrazol-5-yl)phenylthio)phenyl)-tetrahydro-2H-pyran-4-carboxamide], the pIC50 on recombinant human 5-LOX is 7.79; in test [1], 6.73. Besides, the inhibition at 3 mg/kg in test [2] came out at 99.5%.

As to `C[C@H]1C[C@@](C(N)=O)(c2ccc(F)c(Sc3ccc(-c4ccnn4C)cc3)c2)CCO1` [Example 23, (2S,4R)-4-(4-fluoro-3-(4-(1-methyl-1H-pyrazol-5-yl)phenylthio)phenyl)-2-methyl-tetrahydro-2H-pyran-4-carboxamide], the pIC50 on recombinant human 5-LOX is 7.40; in test [1] it was 6.50. In test [2], 3 mg/kg produced 76% inhibition.

In the case of `C[C@H]1C[C@@](C#N)(c2ccc(F)c(Sc3ccc(-c4ccnn4C)cc3)c2)CCO1` [Example 24, (2S,4R)-4-(4-fluoro-4-(4-(1-methyl-1H-pyrazol-5-yl)phenylthio)phenyl)-2-methyl-tetrahydro-2H-pyran-4-carbonitrile], the pIC50 at recombinant human 5-LOX is 6.16; in test [1], 6.82. In addition, testing at 3 mg/kg in test [2] gave an inhibition of 32%.

With `C[C@H]1C[C@@](C(N)=O)(c2cc(F)cc(Sc3ccc(-c4ccnn4C)cc3)c2)CCO1` [Example 27, (2S,4R)-4-(3-fluoro-5-(4-(1-methyl-1H-pyrazol-5-yl)phenylthio)phenyl)-2-methyl-tetrahydro-2H-pyran-4-carboxamide], the pIC50 at recombinant human 5-LOX is 7.70; in test [1] it was 6.86. Also, the inhibition at 3 mg/kg in test [2] stood at 100%.

For the compound `C[C@H]1C[C@@](C(N)=O)(c2ccc(F)c(Sc3ccc(-c4ccnn4C)cc3)c2F)CCO1` [Example 28, (2S,4R)-4-(2,4-difluoro-3-(4-(1-methyl-1H-pyrazol-5-yl)phenylthio)phenyl)-2-methyl-tetrahydro-2H-pyran-4-carboxamide], the results for the pIC50 (at recombinant human 5-LOX; in test [1]) were 7.68 and 6.64, respectively. In addition, the inhibition at 3 mg/kg in test [2] amounted to 100%.

As to `C[C@H]1C[C@@](C(N)=O)(c2cccc(Sc3ccc(-c4ccnn4C)cc3)c2F)CCO1` [Example 29, (2S,4R)-4-(2-fluoro-3-(4-(1-methyl-1H-pyrazol-5-yl)phenylthio)phenyl)-2-methyl-tetrahydro-2H-pyran-4-carboxamide], the pIC50 is 7.83 at recombinant human 5-LOX and 6.58 in test [1]. This compound had an inhibition at 3 mg/kg in test [2] of 100%.

As for `Cn1nccc1Cc1ccc(Sc2cccc(C3(C(N)=O)CCOCC3)c2)cc1F` [Example 33, 4-{3-[3-Fluoro-4-(2-methyl-2H-pyrazol-3-ylmethyl)phenylsulfanyl]-phenyl}-tetrahydro-pyran-4-carboxylic acid amide], the pIC50 at recombinant human 5-LOX was 6.96; in test [1], 6.31. Further, the inhibition at 3 mg/kg in test [2] is 76%.

Take `Cn1nccc1C(=O)c1ccc(Sc2cccc(C3(C(N)=O)CCOCC3)c2)cc1` [Example 34, 4-[3-({4-[(1-methyl-1H-pyrazol-5-yl)carbonyl]phenyl}thio)phenyl]tetrahydro-2H-pyran-4-carboxamide]: the pIC50 on recombinant human 5-LOX was 7.40; in test [1], 6.26. In test [2], the inhibition at 3 mg/kg came out at 99.5%.

Consider `C[C@H]1C[C@@](C(N)=O)(c2cccc(Sc3ccc(C(=O)c4ccnn4C)cc3)c2)CCO1` [Example 39, (2S,4R)-2-methyl-4-(3-(4-(1-methyl-1H-pyrazole-5-carbonyl)phenylthio)phenyl)-tetrahydro-2H-pyran-4-carboxamide], for which the pIC50 at recombinant human 5-LOX was 7.62; in test [1], 6.39. For the same compound, 3 mg/kg produced 66% inhibition in test [2].

For the compound `C[C@H]1C[C@@](C(N)=O)(c2cccc(Sc3ccc(C(=O)c4ccnn4C)cc3)c2F)CCO1` [Example 40], the values for the pIC50 (at recombinant human 5-LOX; in test [1]) were 7.66 and 6.39, respectively. This compound also gave an inhibition at 3 mg/kg in test [2] of 96%.

Regarding `Cn1nccc1Oc1ncc(Sc2cccc(C3(C(N)=O)CCOCC3)c2)cc1Cl` [Example 41, 4-(3-(5-chloro-6-(1-methyl-1H-pyrazol-5-yloxy)pyridin-3-ylthio)phenyl)-tetrahydro-2H-pyran-4-carboxamide], the values for the pIC50 (on recombinant human 5-LOX; in test [1]) were 6.56 and 6.39, respectively. In test [2], this compound returned an inhibition at 3 mg/kg of 98%.

With `Cn1nccc1-c1ccc(Sc2cccc(C3(C#N)CCOCC3)c2)cc1F` [Example 46, 4-(3-{[3-fluoro-4-(1-methyl-1H-pyrazol-5-yl)phenyl]thio}phenyl)tetrahydro-2H-pyran-4-carbonitrile], the pIC50 at recombinant human 5-LOX was 5.38; in test [1], 6.27. For the same compound, in test [2], the inhibition at 3 mg/kg was 0%.

`Cn1nccc1-c1ccc(Sc2cccc(C3(C#N)CCOCC3)c2F)cc1` [Example 48, 4-(2-fluoro-3-{[4-(1-methyl-1H-pyrazol-6-yl)phenyl]thio}phenyl)tetrahydro-2H-pyran-4-carbonitrile]: the pIC50 was 6.41 on recombinant human 5-LOX and 6.91 in test [1]. The compound also returned an inhibition at 3 mg/kg in test [2] of 38%.

Regarding `Cn1nccc1Oc1ccc(Sc2cccc(C3(C(N)=O)CCOCC3)c2)cc1C#N` [Example 51, 4-[3-({3-cyano-4-[(1-methyl-1H-pyrazol-5-yl)oxy]phenyl}thio)phenyl]tetrahydro-2H-pyran-4-carboxamide], the pIC50 at recombinant human 5-LOX is 6.26; in test [1] it was 6.69. The compound also came in with an inhibition at 3 mg/kg in test [2] of 77%.

In the case of `C[C@H]1C[C@@](C(N)=O)(c2cccc(Sc3cnc(Oc4ccnn4C)c(Cl)c3)c2F)CCO1` [Example 52, (2S,4R)-4-(3-(5-chloro-6-(1-methyl-1H-pyrazol-5-yloxy)pyridin-3-ylthio)-2-fluorophenyl)-2-methyl-tetrahydro-2H-pyran-4-carboxamide], the results for the pIC50 (at recombinant human 5-LOX; in test [1]) were 7.68 and 6.57, respectively. The compound further came in with an inhibition at 3 mg/kg in test [2] of 100%.

Take `C[C@H]1C[C@@](C#N)(c2cccc(Sc3ccc(C(=O)c4ccnn4C)cc3)c2F)CCO1` [Example 53, (2S,4R)+(2-fluoro-3-(4-(1-methyl-1H-pyrazole-5-carbonyl)phenylthio)phenyl)-2-methyl-tetrahydro-2H-pyran-4-carbonitrile]: the results for the pIC50 (on recombinant human 5-LOX; in test [1]) were 7.18 and 6.46, respectively. In addition, the inhibition at 3 mg/kg in test [2] came out at 94%.

In the case of `CNC(=O)C1(c2cccc(Sc3ccc(-c4ccnn4C)cc3)c2Cl)CCOCC1` [Example 55, 4-(2-chloro-3-{[4-(1-methyl-1H-pyrazol-5-yl)phenyl]thio}phenyl)-N-methyltetrahydro-2H-pyran-4-carboxamide], the pIC50 at recombinant human 5-LOX was 6.45; in test [1], 5.91. In test [2], testing at 3 mg/kg gave an inhibition of 64%.

Turning to `Cn1ncc(Cl)c1-c1ccc(Sc2cccc(C3(C(N)=O)CCOCC3)c2)cc1F` [Example 56, 4-(3-{[4-(4-chloro-1-methyl-1H-pyrazol-5-yl)-3-fluorophenyl]thio}phenyl)tetrahydro-2H-pyran-4-carboxamide], the pIC50 was 7.36 on recombinant human 5-LOX and 6.33 in test [1]. Moreover, the inhibition at 3 mg/kg in test [2] was determined as 62%.
